The record followed here is PubChem BioAssay AID652276 (Vanderbilt Specialized Chemistry Center, 2013).

The source made the active and inactive calls. The rule behind the calls is not given here.

The first assay deals with Activin receptor type-1 (Homo sapiens) (UniProt Q04771). The experiment in a line: ALK2 kinase inhibitors, SAR follow-up, biochemical, secondary in vitro (AID 652276). The settings on record: in vitro ALK2 kinase assay.
Sequence of Activin receptor type-1 (Homo sapiens) (Q04771 whole entry, looked up): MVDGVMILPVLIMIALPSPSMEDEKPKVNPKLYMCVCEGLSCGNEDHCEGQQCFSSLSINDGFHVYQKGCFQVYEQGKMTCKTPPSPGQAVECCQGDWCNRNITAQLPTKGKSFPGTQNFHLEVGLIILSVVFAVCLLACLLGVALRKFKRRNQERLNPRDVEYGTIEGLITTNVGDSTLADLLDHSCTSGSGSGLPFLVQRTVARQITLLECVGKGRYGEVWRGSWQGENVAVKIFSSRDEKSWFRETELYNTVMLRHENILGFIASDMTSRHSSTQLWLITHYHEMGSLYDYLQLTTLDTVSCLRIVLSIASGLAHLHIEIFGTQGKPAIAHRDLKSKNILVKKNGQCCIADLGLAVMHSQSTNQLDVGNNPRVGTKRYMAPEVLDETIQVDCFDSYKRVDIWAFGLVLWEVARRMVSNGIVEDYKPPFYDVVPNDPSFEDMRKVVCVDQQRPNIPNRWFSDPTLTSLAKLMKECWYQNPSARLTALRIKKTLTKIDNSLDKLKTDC
In the case of `c1cc(N2CCNCC2)ccc1-c1cnc2c(-c3cn[nH]c3)cnn2c1`, the IC50 was 43 nM.

Consider `c1cc(N2CCOCC2)ccc1-c1cnc2c(-c3cn[nH]c3)cnn2c1`, for which the IC50 is 53 nM. Still for that read-out and setting: to `COc1ccc(-c2cnc3c(-c4cn[nH]c4)cnn3c2)cc1` belongs 110 nM; to `COc1ccc(-c2cnc3c(-c4ccnc5ncccc45)cnn3c2)cc1`, 121 nM. Same read-out and setting: the result for `COc1ccc(-c2cnc3c(-c4ccnc5ccccc45)cnn3c2)cc1` reads 33 nM.

Staying with this assay, now noted: in vitro ALK2 kinase assay; at 100 µM (top of the series).
Consider `CN1CCN(c2ccc(-c3cnc4c(-c5ccnc6ccccc56)cnn4c3)cc2)CC1`, for which the remaining activity (low = inhibition) was -0.03.

In the case of `COc1ccc(-c2cnc3c(-c4cccc5cccnc45)cnn3c2)cc1`, the “remaining activity (low = inhibition)” value was “inactive”. With `c1ccc2c(-c3cnn4cc(-c5ccc(N6CCOCC6)cc5)cnc34)ccnc2c1`, the remaining activity (low = inhibition) is 0.93.
